These results are taken from patent US9222137B2, “Method for monitoring minimal residual hairy cell leukemia” (Trovagene, Inc., priority 2011, dated 2015).

“Also recorded” adds a separate entry of the source.

For assay [1], the system named is phosphorylated MEK and ERK in purified primary HCL cells (BRAF V600E). The assay is described as follows: Western blot analysis of MEK and ERK phosphorylation in purified HCL cells incubated in vitro with BRAF inhibitor. The note with it: primary leukemic HCL cells; 250 nM, 500 nM or 1000 nM (≦1 μM); 2, 6 and 24 h incubation; vs vehicle (DMSO). The assay is classed as cell-based, human.
Procedure: Fresh leukemic cells purified from the peripheral blood of 5 patients with HCL were seeded in triplicate (2 to 3×10^5 cells/well, depending on the patient) in 96-well flat-bottom plates, and left recovering by overnight incubation at 37° C. and 5% CO2 in cell culture medium (RPMI1640 with 10% fetal bovine serum, glutamine and antibiotics). […] DMSO (the drug vehicle) was added in parallel wells as control. Cells were then harvested at different time points (2 h, 6 h and 24 h), washed 3 times in PBS, lysed in Laemmli sample buffer and boiled at 95° C. for 5 minutes. […] Protein lysates (6 to 7.5×10^4 fresh cell equivalent, depending on the patient; 2×10^5 frozen cell equivalent) were separated by SDS-polyacrylamide gel electrophoresis (SDS-PAGE) on pre-cast electrophoresis gels (12% Resolving gel cat. 456-1043 or Any kD Resolving Gel cat. 456-9036, Biorad), transferred to a 0.45 um pore size nitrocellulose transfer membrane (Whatman GmbH, Dassel, Germany), and probed with specific primary antibodies directly or after stripping (with Restore Western Blot Stripping Buffer, Pierce/Thermo Scientific cat. 21059). The anti-phospho-ERK1/2 (clone D13.14.4E; 1:2000 dilution), anti-phospho-MEK1/2 (clone 166F8; 1:1000 dilution), anti-ERK1/2 (clone 137F5; 1:1000 dilution) rabbit monoclonal antibodies and the anti-MEK1/2 (clone L38C12; 1:1000 dilution) mouse monoclonal antibody were all from Cell Signaling Technology. Upon incubation with horseradish peroxidase-conjugated secondary antibodies (GE Healthcare Lifesciences, Uppsala, Sweden), polypeptides were visualized using an enhanced chemiluminescence (ECL) western blot detection kit according to the manufacturer's instruction (GE Healthcare Lifesciences). Protein lysates (3×10^4 to 2×10^5 cell equivalent, depending on the experiment) from either serum-starved (45 min at 37° C. and 5% CO2 in RPMI1640) or unstarved human leukemic T-cell line Jurkat cells were used as negative and positive control, respectively, for ERK1/2 and MEK1/2 phosphorylation.
Membranes were probed with antibodies against phospho-ERK, phosphoMEK, total ERK and total MEK, as indicated on the far right. Protein lysates from either serum-starved or unstarved human leukemic Jurkat T cell line cells were used as negative (−) and positive (+) control, respectively, for ERK and MEK phosphorylation.

A further assay has as its system hairy cell leukemia. In words: Case report: index HCL patient treated with pentostatin. The assay is classed as in vivo, human.

Source text for hairy cell leukemia: Splenomegaly was present. […] At immunohistochemistry, leukemic cells were positive for CD20, DBA44, CD68 and Annexin-A1; expression of CD20, CD11c, CD25 and CD103 was documented by flow cytometry.

As to `CCCS(=O)(=O)Nc1ccc(F)c(C(=O)c2c[nH]c3ncc(Cl)cc23)c1F` [PLX-4720], in assay [1], the “phosphorylation of ERK (phospho-ERK, Western blot)” value was “dose-dependent dephosphorylation; also recorded: marked decrease” and the “phosphorylation of MEK (phospho-MEK, Western blot)” value is listed as “dose-dependent dephosphorylation; also recorded: marked decrease”.

Regarding `OC[C@H]1O[C@@H](n2cnc3c2NC=NC[C@H]3O)C[C@@H]1O` [pentostatin], the “clinical outcome after therapy” value in the assay with hairy cell leukemia was “complete hematological remission”.
